Values quoted from earlier work in US20050266081A1, “Antimicrobial silver hydrogels” (priority 2004, published 2005).

Test system: skin cell respiration
Conditions: application of 1 to 10 mg/ml of silver; probable factor in the interference of wound healing

## silver
  inhibition of skin cell respiration: 30%
